Assay results as given in EP0140270A2 (priority 1983, dated 1985).
Like-named read-outs stand apart in the source and are kept apart here.

Tests used:
Assay type in all cases: in vivo
Pyricularia oryzae [1] = conditions: systemic; 40 ml preparation poured on soil of young rice plants; inoculated 7 days after treatment; evaluated 4 days after inoculation; compared with prior art (Zinkethylen-1,2-bis-dithiocarbamat)
Pyricularia oryzae [2] = conditions: protective; young rice plants sprayed to dripping wet, then inoculated; evaluated 4 days after inoculation; compared with prior art (Zinkethylen-1,2-bis-dithiocarbamat)
Phytophthora infestans = conditions: curative; young tomato plants inoculated, sprayed after 7 hours incubation; evaluated 3 days after inoculation; compared with prior art (Zinkethylen-1,2-bis-dithiocarbamat)

SMILES: C#CC(C)(C)C(C(=O)OC)C(=O)OC [Beispiel 1, 3,3-Dimethyl-2-methoxycarbcnyL-pent-4-insäuremethylester]
- Wirksamkeit (Krankheitsbefall) (Pyricularia oryzae [1]): deutliche Überlegenheit in der Wirksamkeit gegenüber dem Stand der Technik

SMILES: C#CC(C)(C)C(C(=O)O)C(=O)OCC (centres unmarked) [Beispiel 2, 3,3-Dimethyl-2-ethoxycarbonyl-pent-4-insäure]
- Wirksamkeit (Krankheitsbefall) (Pyricularia oryzae [1]): deutliche Überlegenheit in der Wirksamkeit gegenüber dem Stand der Technik
- Wirksamkeit (Krankheitsbefall) (Pyricularia oryzae [2]): deutliche Überlegenheit in der Wirksamkeit gegenüber dem Stand der Technik

SMILES: C#CC(C)(C)C(C(N)=O)C(=O)OCC (centres unmarked) [Beispiel 3, 3,3-Dimethyl-2-etrcry-carbonyl-pent-4-insaureamid]
- Wirksamkeit (Phytophthora infestans): deutliche Überlegenheit in der Wirksamkeit gegenüber dem Stand der Technik
- Wirksamkeit (Krankheitsbefall) (Pyricularia oryzae [2]): deutliche Überlegenheit in der Wirksamkeit gegenüber dem Stand der Technik

SMILES: CCOC(=O)CC(C)(C)C#CC(=O)OCCI [Beispiel 4, 3,3-DimethyL-5-iodethoxycarbonyl-pent-4-insäureethylester]
- Wirksamkeit (Krankheitsbefall) (Pyricularia oryzae [1]): deutliche Überlegenheit in der Wirksamkeit gegenüber dem Stand der Technik
- Wirksamkeit (Krankheitsbefall) (Pyricularia oryzae [2]): deutliche Überlegenheit in der Wirksamkeit gegenüber dem Stand der Technik

SMILES: C#CC(C)(C)C(C(=O)OCC)C(=O)OCC [Beispiel 20, 3,3-Dimethyl-2-ethoxycarbonyl-pent-4-insäureethylester]
- Wirksamkeit (Krankheitsbefall) (Pyricularia oryzae [1]): deutliche Überlegenheit in der Wirksamkeit gegenüber dem Stand der Technik
